Measured values reported in patent US5763404A, “Methods for using LHRH antagonists with low histamine release” (priority 1995, dated 1998).
Non-standard residues stand in square brackets, D forms with d. Residues, ends and D or L forms follow the SMILES beside them. *: point of attachment. dAla(cis-4-NHCOPyz-cHex) = N[C@H](C[C@H]1CC[C@@H](NC(=O)c2cnccn2)CC1)C(=O)O; dPhe(4-Cl) = N[C@H](Cc1ccc(Cl)cc1)C(=O)O; d2Nal = N[C@H](Cc1ccc2ccccc2c1)C(=O)O; Lys(iPr) = CC(C)NCCCC[C@H](N)C(=O)O; Orn(iPr) = CC(C)NCCC[C@H](N)C(=O)O; Benzoyl(4-OH) = O=C(c1ccc(O)cc1)*; d3Pal = N[C@H](Cc1cccnc1)C(=O)O; Nicotinoyl = O=C(c1cccnc1)*; Picolinoyl = O=C(c1ccccn1)*; Abu = CC[C@H](N)C(=O)O

Assays:
rat mast cells = test: in vitro histamine release test; type: cell-based
Description: The antiovulatory activity, AOA, in rats was determined as described by Humphries et al. (12). Antiovulation assays were performed by counting, on estrus, the number of ova shed by 4-day cycling rats after a single sc injection of the LH-RH analogue in corn oil was administered between 12 and 12:30 p.m. on […]. The control rats received 0.3 mL of the vehicle. The wheal test was performed by intradermally injecting 10 ug of peptide in 100 ul of saline into anaesthesized rats, measuring the ideally circular wheal response and calculating the area. The in vitro histamine release test was done as described by Karten et al. (4). A suspension of rat mast cells was added to increasing concentrations of peptide and the mixture was incubated for a few minutes followed by centrifugation to collect the histamine in the supernatant. A PIPES (piperazine-N,N'-bis[2-ethanesulfonic acid]) medium buffered at pH 7.4 containing NaCl 119 mM, KCl 5 mM, PIPES 25 mM, NaOH 40 mM, glucose 5.6 mM, CaCl2 1 mM, and 0.1% bovine serum albumin was used. This was designated as PIPES AC. Peptides were dissolved in double distilled H2 O at a concentration of 2 mg/ml and stored at -20° C. They were thawed just prior to testing, diluted in PIPES AC and prewarmed for five minutes at 37° C. Peptides studied were stable to heating at 56° C. for two hours, and to freezing and thawing.
Peritoneal cells were collected from male Sprague-Dawley rats weighing 200 to 250 gm and purchased from Harlan (Madison, Wis.). After euthanasia by CO2, the peritoneal cavity was washed with 50 ml PIPES AC medium containing 20 units of heparin. Following centrifugation at 200×g for eight minutes at 4° C., cells were washed again and finally resuspended to a concentration of 8 to 24×10^5 total leukocytes/ml in PIPES AC. This suspension contained approximately 5-10% mast cells. Washed cells were used immediately after collection and were prewarmed for five minutes at 37° C. prior to pipetting 0.25 ml aliquots into 12×75 mm polystyrene tubes containing 0.25 ml of diluted peptide. Mixtures were incubated for 15 minutes at 37° C. and the reaction stopped by centrifugation at 400×g for 15 minutes at 4° C. The cell supernatants were assayed for histamine content by the automated fluorometric assay procedure. See, Siraganian, R. P., "An automated continuous flow system for the extraction and fluorometric analysis of histamine." Anal. Biochem. 57:383 (1974); and Siraganian, R. P. and Hook, W. A., "Histamine release and assay methods for the study of human allergy," In Manual of Clinical Immunology, 3rd ed., N. R. Rose, H. Friedman, and J. L. Fahey (Eds.), Amer. Soc. for Microbiology, Washington (1986) p. 808.

anaesthesized rats = test: wheal test, intradermal injection; type: in vivo, rat; set-up: Wheal (wheal response): unit not given here
Method in brief: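 Anaesthetized rats given intradermal injection of 10 ug peptide in 100 ul saline; area of the wheal calculated from its diameter.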

Row | SMILES | Wheal Area (anaesthesized rats; 10 ug peptide intradermally) [mm^2 /10 μg] | histamine release (in words) (rat mast cells) | further results
1 | CC(=O)N[C@H](Cc1ccc2ccccc2c1)C(=O)N[C@H](Cc1ccc(Cl)cc1)C(=O)N[C@H](Cc1cccnc1)C(=O)N[C@@H](CO)C(=O)N[C@@H](CCCCNC(=O)c1ccccn1)C(=O)N[C@H](CCCCNC(=O)c1ccccn1)C(=O)N[C@@H](CC(C)C)C(=O)N[C@@H](CCCCNC(C)C)C(=O)N1CCC[C@H]1C(=O)N[C@H](C)C(N)=O (Ac-[d2Nal][dPhe(4-Cl)][d3Pal]SK(Picolinoyl)[dK](Picolinoyl)L[Lys(iPr)]P[dA]-NH2) |  | released no more histamine than do "super agonists" of LHRH | 
2 | CC(=O)N[C@H](Cc1ccc2ccccc2c1)C(=O)N[C@H](Cc1ccc(Cl)cc1)C(=O)N[C@H](Cc1cccnc1)C(=O)N[C@@H](CO)C(=O)N[C@@H](CCCCNC(=O)c1cccnc1)C(=O)N[C@H](CCCCNC(=O)c1cccnc1)C(=O)N[C@@H](CC(C)C)C(=O)N[C@@H](CCCCNC(C)C)C(=O)N1CCC[C@H]1C(=O)N[C@H](C)C(N)=O [Antide, [N-Ac-D-2-Nal^1, D-pClPhe^2, D-3-Pal^3, NicLys^5, D-NicLys^6, ILys^8, D-Ala^10]-LHRH] (Ac-[d2Nal][dPhe(4-Cl)][d3Pal]SK(Nicotinoyl)[dK](Nicotinoyl)L[Lys(iPr)]P[dA]-NH2) |  | released remarkably little histamine | Wheal (anaesthesized rats; Table I, 10 ug peptide intradermally): 132.7 mm^2 /10; Wheal (wheal response) (anaesthesized rats; Table XIV and text, unit not given): 132.7
3 | CC(=O)N[C@H](Cc1ccc2ccccc2c1)C(=O)N[C@H](Cc1cccnc1)C(=O)N[C@H](Cc1ccc(Cl)cc1)C(=O)N[C@@H](CO)C(=O)N[C@@H](CCCCNC(=O)c1ccccn1)C(=O)N[C@H](CCCCNC(=O)c1ccccn1)C(=O)N[C@@H](CC(C)C)C(=O)N[C@@H](CCCNC(C)C)C(=O)N1CCC[C@H]1C(=O)N[C@H](C)C(N)=O [compound 26364] (Ac-[d2Nal][d3Pal][dPhe(4-Cl)]SK(Picolinoyl)[dK](Picolinoyl)L[Orn(iPr)]P[dA]-NH2) | 116.2 ± 5.5 |  | 

Second part, led by results:

Row | Wheal Area (anaesthesized rats; 10 ug peptide intradermally) [mm^2 /10 μg] | SMILES | histamine release (in words) (rat mast cells) | further results
4 | 129.4 ± 3.3 | CC(=O)N[C@H](Cc1ccc2ccccc2c1)C(=O)N[C@H](Cc1ccc(Cl)cc1)C(=O)N[C@H](Cc1cccnc1)C(=O)N[C@@H](CO)C(=O)N[C@@H](Cc1ccc(O)cc1)C(=O)N[C@H](C[C@H]1CC[C@@H](NC(=O)c2cnccn2)CC1)C(=O)N[C@@H](CC(C)C)C(=O)N[C@@H](CCCCNC(C)C)C(=O)N1CCC[C@H]1C(=O)N[C@H](CO)C(N)=O [compound 26365] (Ac-[d2Nal][dPhe(4-Cl)][d3Pal]SY[dAla(cis-4-NHCOPyz-cHex)]L[Lys(iPr)]P[dS]-NH2) |  | 
5 | 116.2 ± 3.2 | CC(=O)N[C@H](Cc1ccc2ccccc2c1)C(=O)N[C@H](Cc1ccc(Cl)cc1)C(=O)N[C@H](Cc1cccnc1)C(=O)N[C@@H](CO)C(=O)N[C@@H](CCCCNC(=O)c1ccccn1)C(=O)N[C@H](C[C@H]1CC[C@@H](NC(=O)c2cnccn2)CC1)C(=O)N[C@@H](Cc1ccccc1)C(=O)N[C@@H](CCCCNC(C)C)C(=O)N1CCC[C@H]1C(=O)N[C@H](C)C(N)=O [compound 26366] (Ac-[d2Nal][dPhe(4-Cl)][d3Pal]SK(Picolinoyl)[dAla(cis-4-NHCOPyz-cHex)]F[Lys(iPr)]P[dA]-NH2) |  | 
6 | 95.1 ± 5.0 | CC[C@H](NC(=O)[C@@H](CCCCNC(=O)c1ccccn1)NC(=O)[C@H](CCCCNC(=O)c1ccc(O)cc1)NC(=O)[C@H](CO)NC(=O)[C@@H](Cc1cccnc1)NC(=O)[C@@H](Cc1ccc(Cl)cc1)NC(=O)[C@@H](Cc1ccc2ccccc2c1)NC(C)=O)C(=O)N[C@@H](CCCCNC(C)C)C(=O)N1CCC[C@H]1C(=O)N[C@H](C)C(N)=O [compound 26381] (Ac-[d2Nal][dPhe(4-Cl)][d3Pal]SK(Benzoyl(4-OH))[dK](Picolinoyl)[Abu][Lys(iPr)]P[dA]-NH2) |  | 
